The values below come from patent US6620844B2, “Method for reducing blood insulin levels by reducing in vivo cathepsin L activity” (NewMillennium Pharmaceutical, Inc., priority 2001, dated 2003).

Test [1] addresses T1, Cathepsin K (Homo sapiens, UniProt P43235).
T1 sequence (P43235 115-329): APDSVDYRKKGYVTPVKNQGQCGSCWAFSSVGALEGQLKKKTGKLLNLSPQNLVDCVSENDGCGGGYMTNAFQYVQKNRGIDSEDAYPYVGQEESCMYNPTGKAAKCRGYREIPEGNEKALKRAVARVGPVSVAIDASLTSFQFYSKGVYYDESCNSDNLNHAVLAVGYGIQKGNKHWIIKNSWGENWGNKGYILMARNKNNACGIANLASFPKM
The note with it: cited from earlier work.

Test [2] addresses Cathepsin L (Homo sapiens, UniProt P07711). The conditions noted are these: cited from earlier work.
Test [3] has as its system CCAAT/enhancer-binding protein-α (C/EBP-α). Briefly: C/EBP-α levels in human preadipocytes, Western blot. In kind it is cell-based. The note with it: human preadipocytes differentiated with inhibitor, FIG. 4. The procedure:
FIG. 4. Inhibition of cathepsin L blocked the expression of CCAAT/enhancer-binding protein. Human preadipocytes were differentiated as in FIG. 2. A 10% gel was used to perform Western blot analysis using goat anti-human C/EBP-α polyclonal antibodies and the blot was detected using the corresponding HRP-conjugated secondary antibodies.
(§1) Human preadipocytes were initially cultured in MSCGM medium (BioWhitaker) at 37° C. and 5% CO2 for 7 to 12 days with 3-4 changes of media till complete confluence. Non-induced cells were kept in adipogenesis maintenance media containing 0.01 mg/ml of insulin, 0.05 units/ml of penicillin, 0.05 μg/ml of streptomycin, and 10% fetal bovine serum. To induce adipogenesis, complete confluent cells were cultured in adipogenesis induction medium containing 1 μM dexamethasone, 0.2 mM indomethacin, 0.01 mg/ml insulin, 0.5 mM 3-isobutyl-1-methyl-xanthine, 0.05 units/ml of penicillin, 0.05 μg/ml of streptomycin, and 10% fetal bovine serum in the presence and absence of protease inhibitors for 3 days followed by three days of culture in maintenance media. After three cycles of induction and maintenance, cells were cultured in maintenance media for additional 7 days with two changes of fresh media.
(§2) To evaluate the cell differentiation levels affected by aforementioned inhibitors, the levels of transcription factors CCAAT/enhancer-binding protein-α (C/EBP-α) as well as peroxisome proliferator-activated receptor-γ (PPAR-γ) from cells treated with and without inhibitors were measured. Both C/EBP-α and PPAR-γ are important adipocyte determination factors. Wu et al. (1999) Mol. Cell. 3:151-158; Tanaka et al. (1997) EMBO J. 16:7432-7443; and Tontonoz et al. (1994) Cell 79:1147-1156.

Test [4] deals with T2, cathepsin K (Mus musculus, UniProt P55097).
T2 construct: endogenous in cells; host or cells: thioglycolate-elicited mouse peritoneal macrophages
T2 sequence (P55097 115-329): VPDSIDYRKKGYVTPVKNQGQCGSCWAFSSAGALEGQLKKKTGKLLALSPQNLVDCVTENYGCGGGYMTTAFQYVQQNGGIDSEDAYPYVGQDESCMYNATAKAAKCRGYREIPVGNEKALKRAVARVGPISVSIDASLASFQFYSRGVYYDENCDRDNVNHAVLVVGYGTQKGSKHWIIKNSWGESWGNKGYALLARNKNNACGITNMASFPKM
Briefly: Cysteine protease active site labeling in mouse peritoneal macrophages: cathepsin K. In kind it is cell-based. The procedure:
(§3) FIG. 1. Cysteine protease inhibition profile by synthetic inhibitors in mouse peritoneal macrophages. [^125I]-Z-Tyr-Ala-CHN2-labeled mouse peritoneal macrophages were lysed and separated onto 12% SDS-PAGE to visualize labeled active cathepsins. Doses and inhibitors used were all indicated.
(§4) Mouse peritoneal macrophages were generated by injecting mice with thioglycolate as described in Shi et al. (2000) J. Exp. Med. 191:[…]. After 3-4 days of incubation, peritoneal microphages were washed out using Tris-EDTA buffers containing 6 mM EDTA (pH 8.0). Cells were then seeded onto 24-well plates in DMEM with 10% FBS till complete spread. After cells were attached to the plates, different doses of inhibitors were added. After 2-3 hours of incubation, cells were labeled with [^125I]-Z-Tyr-Ala-CHN2 overnight at 37° C. to detect intracellular active cysteine proteases. Cells were lysed into 1× reducing protein sample buffer and separated onto 12% SDS-PAGE.
(§5) First, the synthetic small molecule compounds were tested for their selectivity toward different forms of cathepsin. Mouse peritoneal macrophages were cultured in the presence of selective inhibitors and cysteine protease active site labeling probe [^125I]-Z-Tyr-Ala-CHN2 (Sukhova et al., supra). […] In contrast, other inhibitors used had no effect on cathepsin B activity. […] Therefore, these inhibitors can be utilized to test if the aforementioned cathepsins play roles in the breakdown of insulin receptor (IR) or IR turnover.

In the next test the test system is human preadipocytes. The test is described as follows: Human preadipocyte adipogenesis, oil-red staining. In kind it is cell-based. The note with it: for inhibition of adipogenesis / differentiation: 10 μM; for inhibition of adipogenesis / differentiation / effect on adipogenesis: human preadipocytes. The procedure: FIG. 6. Oil-red staining of human preadipocytes and adipocytes.
as §1
This hypothesis is further confirmed by oil-red staining of CLIK 148 or 195 treated preadipocytes (FIG. 6). In addition, inhibition of adiogenesis by these two inhibitors is dose dependent. Less than 50% of adipogenesis was blocked by 1 μM of such inhibitors. […] In contrast, 1 μM of CLIK 060, 1 or 10 μM of CA 074 had no effect on adipogenesis (data not shown). Therefore, these observations indicate that cathepsin L appears to play a more critical role than cathepsins S and K in adipogenesis by controlling insulin/IR complex turnover.

The target in a further test is T3, cathepsin B (Mus musculus, UniProt P10605).
T3 construct: endogenous in cells; host or cells: thioglycolate-elicited mouse peritoneal macrophages
The test is described as follows: Cysteine protease active site labeling in mouse peritoneal macrophages: cathepsin B. Type of test: cell-based. The procedure: as §3, §4, §5

The test system of test [5] is peroxisome proliferator-activated receptor-γ (PPAR-γ). The test is described as follows: PPAR-γ levels in human preadipocytes, Western blot. The conditions noted are these: human preadipocytes differentiated with inhibitor, FIG. 5. Type of test: cell-based. The procedure: FIG. 5. Inhibition of cathepsin L blocked the expression of PPAR-γ. Human preadipocytes were used and Western blot analysis was performed as in FIG. 4 instead of using mouse anti-human PPAR-γ monoclonal antibodies as the primary antibodies.
as §1, §2
For orientation: A western blot detects proteins with antibodies after separation by electrophoresis.

The subject of test [6] is insulin receptor β subunit. Briefly: Insulin receptor turnover in human preadipocytes, Western blot. Type of test: cell-based. The note with it: for IR turnover: human preadipocytes induced to adipocytes. The procedure: FIG. 2. […] Human preadipocytes were incubated with and without inhibitors indicated at different doses, lysed, separated onto 7% SDS-PAGE, and probed with goat anti-human insulin receptor β-subunit polyclonal antibodies. Both mature β subunit and its precursor were indicated.
as §1
(§6) After differentiation, cells were collected, and lysed into 1×RIPA buffer. Protein concentrations were determined using Bio-Rad Dc protein assay system according to the manufacturer (Bio-Rad, Hercules, Calif.). Equal amount of proteins were separated on 7% SDS-PAGE for detecting IR and IGF-1R, 12% SDS-PAGE for detecting cathepsins S, K, and L antigens. Both IR and IGF-1R primary polyclonal antibodies were raised from goat and all cathepsin antibodies were polyclonal antibodies raised from rabbit. The corresponding HRP-conjugated secondary antibodies were used for detections.
To test which cathepsin is involved in the IR turnover, human preadipocytes (BioWhittaker, Walkersville, Md.) were induced to become adipocytes in the presence and absence of inhibitors. Differentiated adipocytes expressed more IR than controls as previously reported. Pederson et al. (2000) Biochem. Biophys. Res. Commun. 276:162-168. Cathepsin B inhibitor (CA 074, 10 μM) and catepsin S inhibitor (CLIK 060, 2 μM) had no effect on either IR turnover or differentiation (FIGS. 2). […] The same is true when the blot was tested with insulin like growth factor I receptor (IGF-IR) antibodies (FIG. 3).

For test [7], the target named is T4, cathepsin L (Mus musculus, UniProt P06797).
T4 construct: endogenous in cells; host or cells: thioglycolate-elicited mouse peritoneal macrophages
The test is described as follows: Cysteine protease active site labeling in mouse peritoneal macrophages: cathepsin L. Type of test: cell-based. The procedure: as §3, §4, §5

Test [8] relates to insulin like growth factor I receptor (IGF-IR). The test is described as follows: IGF-IR levels in human preadipocytes, Western blot. In kind it is cell-based. The procedure:
FIG. 3. […] Cells were treated as in FIG. 2. Western blot analysis was performed using goat anti-human IGF-1R polyclonal antibodies.
as §1, §6
To test which cathepsin is involved in the IR turnover, human preadipocytes (BioWhittaker, Walkersville, Md.) were induced to become adipocytes in the presence and absence of inhibitors. Differentiated adipocytes expressed more IR than controls as previously reported. Pederson et al. (2000) Biochem. Biophys. Res. Commun. 276:162-168. Cathepsin B inhibitor (CA 074, 10 μM) and catepsin S inhibitor (CLIK 060, 2 μM) had no effect on either IR turnover or differentiation (FIGS. 2). […]

The target in another test is cathepsin S (Mus musculus, UniProt O70370). The test is described as follows: Cysteine protease active site labeling in mouse peritoneal macrophages: cathepsin S. Details: endogenous in cells; host or cells: thioglycolate-elicited mouse peritoneal macrophages. In kind it is cell-based. The procedure: as §3, §4
First, the synthetic small molecule compounds were tested for their selectivity toward different forms of cathepsin. Mouse peritoneal macrophages were cultured in the presence of selective inhibitors and cysteine protease active site labeling probe [^125I]-Z-Tyr-Ala-CHN2 (Sukhova et al., supra). […] In contrast, other inhibitors used had no effect on cathepsin B activity. […]

Non-standard residues stand in square brackets, D forms with d. Residues, ends and D or L forms follow the SMILES beside them. *: point of attachment. Cbz = O=C(OCc1ccccc1)*

T4 sequence (P06797 114-334): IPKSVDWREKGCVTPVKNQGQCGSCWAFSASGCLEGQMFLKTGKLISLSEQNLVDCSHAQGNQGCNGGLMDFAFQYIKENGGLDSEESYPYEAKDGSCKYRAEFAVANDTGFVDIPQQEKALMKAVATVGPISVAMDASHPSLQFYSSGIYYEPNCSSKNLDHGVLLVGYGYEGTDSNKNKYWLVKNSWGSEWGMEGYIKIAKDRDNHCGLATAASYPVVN
T3 sequence (P10605 80-333 limits assumed): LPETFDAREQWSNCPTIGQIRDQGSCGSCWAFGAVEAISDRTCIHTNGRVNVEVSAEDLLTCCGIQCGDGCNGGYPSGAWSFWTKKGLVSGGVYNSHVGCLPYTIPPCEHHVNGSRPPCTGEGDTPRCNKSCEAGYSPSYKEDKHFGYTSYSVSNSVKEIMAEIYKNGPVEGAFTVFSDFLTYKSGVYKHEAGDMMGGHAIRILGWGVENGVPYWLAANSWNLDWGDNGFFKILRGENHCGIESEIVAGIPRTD
Chain of Cathepsin L (P07711 114-333, species assumed): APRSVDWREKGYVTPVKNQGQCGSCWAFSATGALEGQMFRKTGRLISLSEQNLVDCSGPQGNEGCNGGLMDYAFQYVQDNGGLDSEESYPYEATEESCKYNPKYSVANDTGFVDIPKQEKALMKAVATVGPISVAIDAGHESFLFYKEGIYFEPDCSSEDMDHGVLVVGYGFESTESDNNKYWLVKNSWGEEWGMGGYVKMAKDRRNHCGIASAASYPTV

For `O=C(N[C@@H](Cc1ccc2ccccc2c1)C(=O)N[C@H]1CCCN(S(=O)(=O)c2ccccn2)CC1=O)c1cccc2cccnc12`, at Cathepsin K [1], the Ki – broadly, the dissociation constant of the complex between target and ligand, obtained from inhibition or displacement – is 420 to 503 nM.

Take `O=C(N[C@@H](Cc1ccc2ccccc2c1)C(=O)N[C@H]1CCCN(S(=O)(=O)c2ccccn2)CC1=O)c1cccc2ccccc12`: the Ki at Cathepsin K [1] is 420 to 503 nM.

Regarding `O=C[C@@H](Cc1ccc(O)cc1)NC(=O)[C@H](Cc1ccccc1)NC(=O)OCc1ccccc1` (Cbz-Phe-[dY]-aldehyde), the “Cathepsin L selectivity, in words” value on Cathepsin L [2] was “Cathepsin L. Selective (Woo et al. Bioorg. Med. Chem. 5, 1501, 1995)”.

Turning to `CN(C)C(=O)[C@H](Cc1ccccc1)NC(=O)[C@H]1O[C@@H]1C(=O)N[C@@H](Cc1ccccc1)C(=O)N(C)C` (relative stereo) [CLIK 195, L-(+)-(2S, 3S)-Bis-(Na-amino-L-phenylalaninedimethylamide)-trans-epoxysuccinamide], the “accumulation of 50 kDa C/EBP-α” value in test [3] was “blocking the accumulation”. Moreover, the “cathepsin K activity (active site labeling)” value on cathepsin K [4] (10 μM) was “not”. For the same compound, the “inhibition of adipogenesis / differentiation” value in the test with human preadipocytes was “complete inhibition”; in the test on human preadipocytes (listed as 195), “completely blocked”. Moreover, the “cathepsin B activity (active site labeling)” value on cathepsin B (10 μM) was “not”. In addition, the “accumulation of 50 kDa PPAR-γ” value in test [5] was “blocking the accumulation”. The “levels of 95 kDa IR β subunit and its precursor” value in [6] (10 μM, human preadipocytes) is “increased levels”. In addition, the “cathepsin L activity (active site labeling)” value (“cathepsin L activity” below) on cathepsin L [7] (10 μM, mouse peritoneal macrophages) is “completely inhibited”. In addition, the “levels of IGF-IR β subunit and its precursor (the same as for IR)” value in [8] (10 μM) is on record as “increased levels”.

Take `CN(C)C(=O)[C@H](Cc1ccccc1)NC(=O)C1OC1C(=O)NC(CCCCN)C(=O)Nc1ccccc1.Cl` (stereo in doubt) [CLIK 060, N-{L-3-trans[(1-phenylcarbamoyl-5-amino)pentylcarbamoyl]oxirane-2-carbonyl}-L-phenylalaninoldimethylamide hydrochloride]: the “cathepsin S activity (active site labeling)” value at cathepsin S (2-10 μM) is recorded as “significantly inhibited”. The values for the effect on adipogenesis entry in the test on human preadipocytes (1 μM) and in the test on human preadipocytes (10-15 μM (higher concentrations)) were “no effect” and “adipogenesis inhibition”, respectively. Moreover, the “differentiation of human preadipocytes” value with human preadipocytes (2 μM) is on record as “no effect”. Also, the IR turnover result in [6] (2 μM) is given as “no effect”. In [6] (10-15 μM, human preadipocytes), the IR accumulation entry is reported as “IR accumulation”. The “cathepsin L activity” value at cathepsin L [7] (2-10 μM, mouse peritoneal macrophages) is reported as “affected at some level”; on cathepsin L [7] (10-15 μM, FIG. 1), “blocked”.

With `CCCNC(=O)[C@H]1O[C@@H]1C(=O)N[C@H](C(=O)N1CCC[C@H]1C(=O)O)[C@@H](C)CC` [CA 074], the “cathepsin S activity (active site labeling)” value at cathepsin S (2 μM) is on record as “remain intact”. The “cathepsin K activity (active site labeling)” value at cathepsin K [4] (2 μM) is listed as “remain intact”. The effect on adipogenesis result in the test on human preadipocytes (1 μM) and in the test on human preadipocytes (10-20 μM) was “no effect” in each case. Further, the “inhibition of adipogenesis / differentiation” value with human preadipocytes is “no effect”. Also, the “cathepsin B activity (active site labeling)” value at cathepsin B (2 μM) is given as “completely blocked”. The IR turnover result in test [6] (10 μM) was “no effect”. The “cathepsin L activity” value at cathepsin L [7] (2 μM, mouse peritoneal macrophages) is listed as “remain intact”.

Consider `CCOC(=O)[C@H]1O[C@@H]1C(=O)N[C@@H](CC(C)C)C(=O)NCCC(C)C` [E64d], for which the “accumulation of 50 kDa C/EBP-α” value in [3] is listed as “blocking the accumulation”. For the same compound, the “accumulation of 50 kDa PPAR-γ” value in [5] is recorded as “blocking the accumulation”. Further, the “levels of 95 kDa IR β subunit and its precursor” value in test [6] (20 μM, human preadipocytes) is given as “increased levels”. Besides, in test [8] (20 μM), the “levels of IGF-IR β subunit and its precursor (the same as for IR)” value is listed as “increased levels”.
